Data published in patent US10406217B2, “Antifugetactic agents for the treatment of cancers” (The General Hospital Corporation, priority 2004, dated 2019).
Where two headings read alike, the source gives them in different places. Each block holds one compound with its values, some of them ahead of it.

Legend:
CXCR4 [1] = biological target: T1, CXCR4 (Mus musculus, UniProt P70658); settings: OT-I preincubated with AMD3100 5 μg/ml; flat-bottom wells; SIINFEKL-pulsed targets; ±SEM
Procedure: Cytotoxicity of OT-I CD8+ cells was measured in a standard ^51Cr-release assay in round-bottom, wells as previously described (Brainard, D. M, et al. 2004. J Virol 78:5184-5193). The assay was also modified and performed in flat-bottom wells in order to determine the effects of CTL migration on killing efficacy in the context of target cells expressing SDF-1 (Hahne, M., et al. 1996 Science 274:1363-1366). B16/OVA.MSCV or B16/OVA.SDF1-high target cells were labeled with 100 μCi of ^51CR per 10^6 cells for 1 hour at 37° C. […] 30 μl of supernatant were harvested, and the radioactivity was counted in a γ-radiation counter. Cytotoxicity was expressed either as percent of lysis or as Lytic Unit 30 (LU30) as previously described (Brainard, D. M., et al. 2004. J Virol 78:5184-5193, Bryant, J., et al. 1992. J Immunol Meth 146:91-103). ^51Cr release assays were also performed in flat-bottom cells after preincubation of OT-I CD8+ T cells with the CXCR4 antagonist AMD3100 at concentrations of 0.25 and 1 μg/ml (Hatse, S. 2002 FEBS LETT 527:255-262).

CXCR4 [2] = biological target: T1, CXCR4; settings: Matthys et al. 2001; cited from earlier work
CXCR4 [3] = biological target: T1, CXCR4; settings: B16/OVA.MSCV vs B16/OVA.SDF-1-high tumor, OT-I T-cells incubated with AMD3100 0.08 and 0.25 μg/ml before adoptive transfer, MRI 24 hours, mean±SD, n=3
Procedure: (§1) In some experiments, activated OT-I CD8+ T cells were also preincubated with the CXCR4 antagonist, AMD3100, at concentrations of 0.08 and 0.25 μg/ml (15 min at RT) in a 12-well plate at a density of 1×10^7 cells/well prior to adoptive transfer (Hatse, S., et al. 2002, FEBS Lett 527:255). Survival analysis was evaluated in mice after in vivo generation of a tumor-specific memory T cell compartment (Bathe, O. F., et al. 2001, J Immunol 167:4511). 21 days after adoptive transfer of 1×10^7 OT-I CD8+ T cells (in 500 μl of HBSS via tail vein injection), two groups of mice (4 or 6 per group) were challenged s.c. in the right flank with 2×10^5 B 16/OVA.SDF-1-high cells or B16/OVA.MSCV control cells in 200 μl of HBSS using a 27 G needle (Bathe, O. F., et al. 2001, J Immunol 167:4511). […] Detectable tumor was considered to be >5 mm^2. Mice were sacrificed when tumors reached 400 mm^2 in size.

CXCR4 [4] = biological target: T1, CXCR4; settings: T-cells pre-incubated with 5 μg/ml AMD3100 for 30 min; 15 hours incubation
Procedure: The CXCR4 receptor was blocked by pre-incubation of T-cells with 5 μg/ml AMD3100 (Sigma, St. Louis, Mo.) for 30 min at 37° C. as previously described (70). Trajectories of migration were determined for randomly selected T-cells using Metamorph software. Cell path tracking and mean chemotropic indices (MCI) as a measurement of directionality of movement towards or away from β-TC3 cells were calculated using MetaMorph and MatLab software as previously described where an MCI of +0.1 to −0.1 indicates chemokinesis, >+0.1 indicates chemotaxis and <−0.1 indicates fugetaxis (Moghe, P. V., et al. 1995 J Immunol Methods 180, 193-211; McCutcheon, M. (1946) Physiological Reviews 26, 319).

CXCR4 [5] = biological target: T1, CXCR4
Source text: Pregnant females at day 15.5 of gestation were sacrificed by CO2 asphyxiation, and embryos were chilled on ice. Fetal thymuses were carefully removed under a dissecting microscope, taking care to keep the anatomically identifiable lobes joined together. Thymuses were placed in HBSS and kept on ice. Individual thymuses were gently transferred onto the surface of a polycarbonate membrane of a 6.5 mm transwell insert with a 3.3 μm pore size (Corning Incorporated Life Sciences Action, Mass.). DMEM (360 μl) supplemented with 2 mM glutamine, 100 U/ml penicillin, 100 μg/ml streptomycin, 2×10^5 M 2-mercaptoethanol, 0.1 mM non-essential amino acids, 10% HEPES, and 10% FBS (Sigma) was added to the lower chamber of the transwell. This amount of medium allowed the thymus to be at the interface of medium and air. The cultures were incubated at 37° C., in 5% CO2, and medium was replaced every 3 days. Thymic emigrants, were collected from each thymus by transferring each transwell insert containing one thymus onto to a new well 24 hours before harvesting emigrant present in the lower chamber for analysis. On the day of analysis, two thymuses were harvested, and emigrants were pooled from at least 4 thymic lobes from CXCR4^+/− CXCR4^−/− mice. For each time-point, CXCR4^+/− and CXCR4^−/− thymuses from one or two pregnant females bred at the same time were analyzed, aiming to minimize differences in the stage of maturation and total cell recovery. E15.5 WT (CXCR4^+/+) thymuses were obtained from fetuses from C57BL/16 mice breedings. […] FTOC from DPC 15.5 CXCR4+/− or CXCR4−/−embryos were also prepared as above, and AMD3100 (0.5 or 1 gg/ml; Sigma) was added to the lower chamber of day 14 FTOC.
Thymic lobes were harvested and transferred to a 4-ml round bottom polystyrene tube containing 0.4 mg/ml collagenase (from Clostridium histolyticum, type V, clostridiopeptidase A, SIGMA Chemicals), 10% FBS, EDTA0.2 mg/ml and 0.2 M phosphate. After 30 minutes incubation at 37° C., thymuses were disaggregated by gentle pipetting until no visible fragments remained. Cell suspensions were washed once in HBSS and 10% FBS to prevent further enzyme action. Cells were resuspended in PBS containing 0.1% bovine serum albumin and counted using a hemocytometer. After incubation for 30 minutes on ice with 0.5 gg of 2.4G2 antibody to block Fc binding, direct staining for three or four color analysis was performed. Cell suspensions were incubated for 15 minutes at 4° C. and then washed twice with staining buffer and analyzed using a FACSCalibur (BD Biosciences). Data analysis was performed with FlowJo software (Tree Star, Inc. Ashland, Oreg.). […] For annexin V and PI staining, an Annexin V-FITC Apoptosis Detection Kit I was used (BD Pharmingen). […] Mean log fluorescence intensity (MFI) values were obtained by subtracting the MFI of the isotype control from the MFI of the positively stained sample. To evaluate whether the differences between the peaks of cells were statistically significant with respect to controls, the Kolmogorov-Smirnov test for analysis of histograms was used.

CXCR4 [6] = biological target: T1, CXCR4; settings: 48 hours
Procedure: as §1
Immunized mice and mice that received adoptive transfer of OT-I CD8+ T-cells were evaluated for T cell infiltration of tumors by immunohistochemistry. Animals were sacrificed and tumors excised with preservation of the capsule. Resected tumors were fixed in 10% neutral buffered formalin and embedded in paraffin. Serial 5 μm sections of tumors were stained with H & E or with polyclonal anti-CD3 Ab or isotype control Ab, followed by incubation with secondary HRP-labeled anti-rabbit Dako EnVision Ab (DakoCytomation). T-cell infiltration was quantified by counting four random 200× field powers of the turner sections, each […] in area.

B16/OVA.MSCV tumors = settings: naïve mice, AMD3100 1.25 mg/kg s.c. twice a day from first day after challenge, average±SD
Procedure: (§2) For in vitro growth, 5×10^5 tumor cells were seeded in T25 flasks (Becton Dickinson, Le Pont De Claix, France). Cultures were harvested daily for 3 consecutive days and viable cell yield determined. Tumorigenicity was determined by subcutaneous (s.c.) injection of 2×10^5 viable cells into the flank of mice in a total volume of 200 μl PBS using a 27 G needle. Tumor growth was also evaluated in naïve mice challenged with B16/OVA.MSCV or B16/OVA.SDF-1-high cells and injected twice a day s.c. with the CXCR4 antagonist. AMDS3100 (1.25 mg/kg s.c., Sigma). Tumor growth was measured every three or four days using a caliper. Tumor volume was recorded as the product of two orthogonal diameters (axb; a=longest diameter; b-orthogonal width) (Hanson, J. L., et al. 2000 Immunity 13:265-276). In immunization studies, mice were injected s.c. (at multiple sites) with 1×10^5 Irradiated (8568 cGy) B16/OVA.pc cells in a volume of 200 μl at d 0 and d 10. Fourteen days after immunization, mice were challenged s.c. in both flanks with 2×10^5 B16/OVA.MSCV B16/OVA.SDF-1 high cells, and tumor growth was measured as described above (Dranoff, G., et al. 1993 Proc Natl Acad Sci USA 90:3539-3543). In some experiments, mice were immunized with B16/OVA.SDF-1-high cells and then challenged with B16/OVA.SDF-1-high or B16/OVA.SDF-1-low cells. Mice were sacrificed when one or both tumors reached 200 mm^2 in volume.

[7] = test system: B16/OVA.SDF-1-high tumors; settings: naïve mice, AMD3100 1.25 mg/kg s.c. twice a day, average±SD
Procedure: as §2

Protein Kinase C = assay: Microfluidic migration assay of neutrophils in linear IL-8 gradients (mean chemotropism index); format: cell-based, Human; settings: 25 μM pretreatment; IL-8 gradient in which fugetaxis is predominant (600 nM to 1.2 μM); p=0.0001
Source text: Human whole blood was obtained from healthy volunteers by venipuncture into tubes-containing sodium heparin (Becton Dickinson, San Jose, Calif.). Neutrophils were isolated by density gradient centrifugation and purified by hypotonic lysis, as previously described (Tager, A. M., et al. 1998. Am J Respir Cell Mol Biol 19:643-52).
The microfluidic linear gradient generators were fabricated in poly(dimethylsiloxane) (PMDS; Sylgard 184, Dow Corning, N.Y.), and gradient generation was verified with fluorescin isothiocyanate (FITC; Sigma-Aldrich), as previously described (Li Jeon, N., et al. 2002. Nat Biotechnol 20:826-30; Whitesides, G. M., et al. 2001. Annu Rev Biomed Eng 3:335-73), […]
Cell movement was tracked using MetaMorph 4.5 (Universal Imaging, Dowington, Pa.) object tracking application, which generated tables of Cartesian coordinate data for each cell. Tracking data was analyzed in Excel (Microsoft, USA) and MATLAB 13 (The Mathworks, Inc., Newton, Mass.) to determine angular frequencies, mean squared displacements, migration velocities, persistence times, random motility coefficients, and random walk path lengths. […] For each cell, the squared displacement R(t) was calculated at time interval t, R^2(t)=(x(t0+t)−x(t0))^2+(y(t0+t)−y(t0))^2, (1) where t0 is the time at the origin. […]

[8] = test system: Primary human neutrophils; assay: Calcium flux in neutrophils in response to IL-8 (Fura-2); format: cell-based; settings: calibrated against 5 μM ionomycin
Procedure: (§3) Calcium flux in neutrophils in response to IL-8 was measured as previously described (Mahon M. J., et al. 2004 J Biol Chem 279:23550-8). Briefly, isolated cells (˜10^7/ml) were transferred into a balanced salt solution (127 mM NaCl, 3.8 mM KCl, 1.2 mM KH2PO4, 1.2 mM CaCl2, 0.9 mM MgCl2, 5 mM glucose, and 10 mM HEPES, pH 7.4), incubated for 45 min at room temperature with 1.25 μM Fura-2 acetoxymethyl ester (Molecular Probes, Eugene, Oreg.), washed with the balanced salt solution, and unloaded for 15 min at room temperature. […] Calcium flux in response to indicated concentrations of IL-8 (Akahoshi T., et al. 1994 Lymphokine Cytokine Res 13:113-6) was measured by fluorescence of cells excited at 340 and 380 nm using a PTI Deltascan dual-wavelength fluorimeter (Photon Technologies Incorporated, Lawrenceville, N.J.), observed through a Nikon Diaphot 200 microscope (Melville, N.Y.) and Sensys charge-coupled device camera (Photometrics, Ltd., Tucson, Ariz.), and analyzed using the Poenie-Tsien ratio with Imagemaster 2 software (Photon Technologies Incorporated). Signaling responses to IL-8 at designated concentrations were calibrated against maximal calcium flux as determined by treatment with 5 μM ionomycin (Sigma). CXCR2 expression on neutrophils pre- and post-exposure to 120 nM, 1.2 μM and 2.4 μM IL-8 was determined using PE-labelled anti-CXCR2 IgGl antibody (R & D systems). […]

CXCR2 = CXCR2 staining of neutrophils following IL-8 exposure; format: cell-based, Human; settings: single pulse of IL-8 at 12 nM, 120 nM, 1.2 μM and 2.4 μM; data not shown
Procedure: as §3

[9] = OT-I CD8+ T-cells incubated with 0.08 μg/ml AMD3100 before adoptive transfer
[10] = OT-I CD8+ T-cells incubated with 0.25 μg/ml AMD3100 before adoptive transfer

T1 sequence (P70658 whole entry): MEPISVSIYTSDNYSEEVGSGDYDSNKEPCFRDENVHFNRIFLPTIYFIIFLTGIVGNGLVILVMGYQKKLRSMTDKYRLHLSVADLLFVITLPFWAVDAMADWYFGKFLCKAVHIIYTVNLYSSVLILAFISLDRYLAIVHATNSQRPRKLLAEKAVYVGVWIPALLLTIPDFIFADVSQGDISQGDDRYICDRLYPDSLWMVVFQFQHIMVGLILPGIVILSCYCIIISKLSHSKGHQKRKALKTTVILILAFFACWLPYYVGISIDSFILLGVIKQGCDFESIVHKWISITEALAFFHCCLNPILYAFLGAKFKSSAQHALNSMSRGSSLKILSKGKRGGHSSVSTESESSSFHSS

ratio of T2 fit value in the right and left tumors (CXCR4 [3]): 1+0.12
ratio of T2 fit value in the right and left tumors (CXCR4 [3]; listed as AM3100): 0.55±0.13
total number of cells in the thymus (CXCR4 [5]; day 14 FTOC incubated 24 hours with 1 μg/ml AMD3100): 349±99.5 ×10^3/lobe
SP CD4 thymocytes emigrating from thymus (CXCR4 [5]; day 14 FTOC, 24 hours with 1 μg/ml AMD3100, mean±SEM): 1.1±0.15 ×10^3/love
CD62L expression by SP CD8 thymocytes (CXCR4 [5]; day 14 FTOC, 24 hours with 1 μg/ml AMD3100, p=0.56): not affected
total number of SP CD8 emigrants vs untreated FTOC (CXCR4 [5]; day 14 FTOC, 24 hours with 1 μg/ml AMD3100, p=0.93): did not differ
CD3+ T-cell infiltration into B16/OVA.SDF-1-high tumors (CXCR4 [6]; [9]): 101±10.6 cells/mm^2
number of T-cells infiltrating B16/OVA.MSCV tumors (CXCR4 [6]; [9]): 109±3.2 cells/mm^2
CD3+ T-cell infiltration into B16/OVA.SDF-1-high tumors (CXCR4 [6]; [10]): 88.1±16.9 cells/mm^2
number of T-cells infiltrating B16/OVA.MSCV tumors (CXCR4 [6]; [10]): 93±14.8 cells/mm^2
Compound: c1cc(CN2CCCNCCNCCCNCC2)ccc1CN1CCCNCCNCCCNCC1 [AMD3100]
LU30, killing of B16/OVA.SDF-1-high cells by OT-I CD8+ T-cells (CXCR4 [1]): 77×10^6±15
intracellular Ca+ flux and chemotactic responses of murine splenocytes to SDF1 (CXCR4 [2]): inhibit
T-cell migration away from SDF-1 secreting MSCV.SDF-1 bright cells (CXCR4 [4]): failed to migrate away from SDF-1 secreting cells
CD62L^high CD4 SP cells in the thymus vs untreated (CXCR4 [5]; day 14 FTOC, 24 hours with 1 μg/ml AMD3100, p=0.017): retention of CD62L^high CD4 SP cells in the thymus
average time to tumor growth to a size of 200 mm^2 (B16/OVA.MSCV tumors): 22 ± 2 days
time for tumor growth to 200 mm^2 [7]: 23.6 ± 2.08 days

Compound: CN(C)CCCn1cc(C2=C(c3c[nH]c4ccccc34)C(=O)NC2=O)c2ccccc21 [GF 109230X]
effect on neutrophil fugetaxis in IL-8 gradient (Protein Kinase C): selectively inhibited fugetaxis and converted a fugetactic response into a predominantly chemoattraction response

Compound: IL-8: human Interleukin-8 (72 amino acids; PeproTech), chemokine
Peak calcium flux response (percentage of maximal calcium flux) ([8]; 120 nM IL-8): 48%+/−5.1
Peak calcium flux response (percentage of maximal calcium flux) ([8]; 1.20 μM IL-8): 83%+/−7.9
reduction of CXCR2 mean fluorescent intensity from baseline (CXCR2): 2- to 3 fold
